# Data as given in PubChem BioAssay AID463199 (Broad Institute, 2010).
# Activity calls are given as the source filed them.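 Rule for the calls: active = AC50, the dose giving half-maximal effect, exceeds a fixed cutoff for a compound that rescues yeast growth under heat; inactive = the rest, inconclusive results apart.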
# Tested on: S. cerevisiae Burl-1 ts mutant growth, BacTiter-Glo, 38.5C 24 h
# Assay: growth induction of Burl-1 ts yeast mutant, dose response, counter-screen for SUMOylation pathway inhibitor project, whole organism, S. cerevisiae, luminescence (AID 463199)
row,Structure (SMILES),AC50
1,O=C(CCc1ccccc1)NNC(=S)Nc1ccc(F)cc1,> 42 µM (inactive)
2,O=C(c1cc(N2C(=O)C3C4CCC(C4)C3C2=O)ccc1Cl)N1CCCCCC1 (stereo not given),> 42 µM (inactive)
3,Cc1cc(C(F)(F)F)c(C#N)c(=O)[nH]1,> 42 µM (inactive)
4,CNC(=O)COC(=O)c1cc(-c2ccco2)nc2ccccc12,> 42 µM (inactive)
5,CCc1noc(C)c1C(=O)Nc1nc(-c2ccc(F)cc2)c(C)s1,> 42 µM (inactive)
6,CCCS(=O)(=O)N1CCC(C(=O)N2CCc3ccccc3C2)CC1,> 42 µM (inactive)
7,CC(C)CCOCc1nc2sc3c(c2c(=O)[nH]1)CCC(C)C3 (stereo not given),> 42 µM (inactive)
8,CCOC(=O)c1ccc(NC(=O)NCc2ccncc2)cc1,> 42 µM (inactive)
9,CCn1cnc2sc(-c3ccccc3)cc2c1=O,> 42 µM (inactive)
10,COCC(=O)n1nc(-c2ccccc2)nc1NCc1ccc(N(C)C)cc1,> 42 µM (inactive)
11,OC1(c2ccc(F)cc2)CC2CCC(C1)N2Cc1nnnn1C1CCCCC1 (stereo not given),> 42 µM (inactive)
12,O=C(N/N=C\c1cn(-c2ccccc2)nc1-c1ccccc1)c1ccc(Br)o1,> 42 µM (inactive)
13,CSc1nncc(/C(C)=N\Nc2cccc(C)c2)n1,> 42 µM (inactive)
14,COc1cc(/C=N/NC2=NS(=O)(=O)c3ccccc32)cc(OC)c1OC,> 42 µM (inactive)
15,CCC(C)NC(=O)CSc1nnc(-c2cc(-c3ccc(C)cc3)nc3ccccc23)n1N (stereo not given),> 42 µM (inactive)
16,COc1cccc(Cn2cnc3c(NS(=O)(=O)c4cccc(Cl)c4Cl)c(C)c(C)cc32)c1,> 42 µM (inactive)
17,Cc1ccc(-c2[nH]ncc2CNCCc2cnn(-c3ccccc3)c2)cc1C,> 42 µM (inactive)
18,COC(=O)c1ccc(NC(=O)CCN2CCN(c3ccccc3)CC2)cc1,> 42 µM (inactive)
19,CC(OC(=O)c1cc(S(=O)(=O)N2CCOCC2)ccc1F)C(=O)NCc1ccc2c(c1)OCO2 (stereo not given),> 42 µM (inactive)
20,COc1ccc(NC(=O)CN(c2ccc(C(C)C)cc2)S(=O)(=O)c2c(C)noc2C)cc1OC,> 42 µM (inactive)
21,O=[N+]([O-])c1ccc(-c2csc(N3CCc4ccccc4C3)n2)cc1,> 42 µM (inactive)
22,COc1ccc(C(=O)COc2ccc3ccc(=O)oc3c2)cc1,> 42 µM (inactive)
23,COc1ccc(-c2nnc(SCC(=O)N3CCCCC3)o2)cc1,> 42 µM (inactive)
24,CCOC(=O)C(NC(=O)c1ccccc1)(N1CCOCC1)C(F)(F)F (stereo not given),> 42 µM (inactive)
25,Cc1occc1-c1nnc(SCC(=O)N2CCN(c3ccccc3)CC2)n1C,> 42 µM (inactive)

row,Structure (SMILES),AC50
1,CCCN1C(=O)c2ccc(C(=O)Nc3nccs3)cc2C1=O,> 42 µM (inactive)
2,COc1cc(C(=O)Nc2ccc3c(c2)OCCO3)ccc1-n1cnnn1,> 42 µM (inactive)
3,COc1cc([N+](=O)[O-])cc(/C=N/NC(=O)c2cc(C)nc3ccccc23)c1O,> 42 µM (inactive)
4,Cn1c(=O)nc2n(Cc3ccccc3)c3ccccc3cc-2c1=O,> 42 µM (inactive)
5,COc1ccc(/C=C(\C#N)C(=O)c2cccn2C)cc1,> 42 µM (inactive)
6,CCCCCOC(=O)C1=C(C)N(C)C(=O)NC1c1cc(Br)c(O)c(OC)c1 (stereo not given),> 42 µM (inactive)
7,CCOC(=O)c1cnc2oc3ccccc3n2c1=O,> 42 µM (inactive)
8,O=C(NCc1cccc(F)c1F)C1CCC(=O)N(C2CC2)C1 (stereo not given),> 42 µM (inactive)
9,CC(C)(C)NC(=O)CC1C(=O)NCCN1Cc1c(F)cccc1Cl (stereo not given),37.4 µM
10,COc1ccc(CN(CC(=O)NCC2CCCO2)C(=O)CCC(=O)Nc2cc(C)on2)cc1 (stereo not given),> 42 µM (inactive)
11,Cc1ccccc1-c1nc(CN2CCCC(C(=O)NCc3cccnc3)C2)c(C)o1 (stereo not given),> 42 µM (inactive)
12,COc1ccc(NC(=O)CC(C)C)c(OC)c1,> 42 µM (inactive)
13,COCCNC(=O)C(=O)N/N=C(\C)CC(=O)Nc1cccc(C(F)(F)F)c1,> 42 µM (inactive)
14,CN1C2CCC1CC(OC(=O)c1ccc([N+](=O)[O-])cc1)C2 (stereo not given),> 42 µM (inactive)
15,O=C(N=C1SC2CS(=O)(=O)CC2N1c1ccc(F)c(Cl)c1)C1CC1 (stereo not given),> 42 µM (inactive)
16,CC(OC(=O)c1cnccn1)C(=O)c1ccccc1 (stereo not given),> 42 µM (inactive)
17,CC1Cc2ccccc2N1C(=O)Cn1c(=O)cc(O)c2ccccc21 (stereo not given),> 42 µM (inactive)
18,CCCN(CC1CC1)C(=O)COc1ccccc1C(=O)NCc1ccccc1,> 42 µM (inactive)
19,CCCc1ccc(S(=O)(=O)NCCc2ccncc2)cc1,> 42 µM (inactive)
20,Cc1cnc(C(=O)OC(C(=O)c2c[nH]c3ccccc23)c2ccccc2)cn1 (stereo not given),> 42 µM (inactive)
21,CCN(CC)S(=O)(=O)c1ccc(S(=O)(=O)N2CCC(C(=O)NC3CCN(Cc4ccccc4)CC3)CC2)cc1,> 42 µM (inactive)
22,Cc1ccc(S(=O)(=O)N2CCN(C(=O)CSc3nc(N)cc(=O)[nH]3)CC2)c(C)c1,> 42 µM (inactive)
23,CCCn1c(SC(C)C(=O)NCC2CCCO2)nc2sc(CC)cc2c1=O (stereo not given),> 42 µM (inactive)
24,Cc1ccccc1C(=O)NNC(=S)Nc1cccc(C(F)(F)F)c1,> 42 µM (inactive)
25,CC1CCCC(C)N1/N=C/c1cc(Br)cc(Br)c1O (stereo not given),> 42 µM (inactive)

row,Structure (SMILES),AC50
1,CC1(C)CNc2cc([N+](=O)[O-])ccc2S1,> 42 µM (inactive)
2,CCOC(=O)/C(C#N)=C\c1ccc(CC)s1,> 42 µM (inactive)
3,Cc1nnc(SCC(=O)NC(C)(C)C)n1NCc1ccc(Cl)cc1,> 42 µM (inactive)
4,COc1ccc(N(C(=O)c2ccncc2)S(=O)(=O)c2ccc(F)cc2)cc1,> 42 µM (inactive)
5,CC1Cc2ccccc2N1C(=O)CNc1cccc(S(=O)(=O)N2CCCC2)c1 (stereo not given),> 42 µM (inactive)
6,CCOC(=O)c1c(C)[nH]c(O)c1C=Nc1ccccc1,> 42 µM (inactive)
7,COc1ccc(NS(=O)(=O)c2ccc(OCC(=O)N3CCOCC3)cc2)cc1Cl,> 42 µM (inactive)
8,COc1ccc(S(=O)(=O)N2CCOC2CNC(=O)C(=O)NCc2ccncc2)cc1C (stereo not given),> 42 µM (inactive)
9,CN(C)CCCN(Cc1ccccc1)C(=S)Nc1ccc(F)c(Cl)c1,> 42 µM (inactive)
10,O=C(CN1CCN(c2ccccc2F)CC1)Nc1nnc(C(F)(F)F)s1,> 42 µM (inactive)
11,Cc1cc(C)cc(OCC(=O)Nc2ccc(N3CCN(C(=O)c4ccco4)CC3)cc2)c1,> 42 µM (inactive)
12,Cc1ccc(S(=O)(=O)N2[C@@H](c3ccc(Br)cc3)C(C(=O)O)=C[C@H]2CC2CCCC2)cc1,> 42 µM (inactive)
13,O=C(NCCCn1ccnc1)c1ccc(Cl)cc1,> 42 µM (inactive)
14,c1ccc2[nH]c(CSc3nccs3)nc2c1,> 42 µM (inactive)
15,C[C@H](NC(=O)OC(C)(C)C)C(=O)NCC1CCC(C(=O)N[C@@H](Cc2ccccc2)C(=O)O)CC1 (stereo not given in full),> 42 µM (inactive)
16,CCOc1ccc(Br)cc1S(=O)(=O)N1CCC(C(N)=O)CC1,> 42 µM (inactive)
17,O=C(Nc1cccc(Cl)c1)OCc1cncs1,> 42 µM (inactive)
18,COc1ccccc1-n1c(O)c(/C=C2\C=Nc3ccccc32)c(=O)[nH]c1=O,> 42 µM (inactive)
19,CCOC(=O)C(C)(C)Sc1nc2c(cnn2-c2ccc(C)cc2)c(=O)[nH]1,> 42 µM (inactive)
20,Cc1ccc(S(=O)(=O)NNC(=O)c2cc3cc4ccccc4nc3s2)cc1,> 42 µM (inactive)
21,CCn1nc(CC(=O)Nc2ccc(-n3cnnn3)c(C)c2)c2ccccc2c1=O,> 42 µM (inactive)
22,CN1C(C(=O)Nc2ccccn2)=C(O)c2sccc2S1(=O)=O,> 42 µM (inactive)
23,c1ccc2c(c1)OCCOCCOc1ccccc1OCCOCCO2,> 42 µM (inactive)
24,O=C(Cn1sc2ccccc2c1=O)NC12CC3CC(CC(C3)C1)C2,> 42 µM (inactive)
25,CCOC(=O)c1oc2c(c1C)C(=O)CCC2,> 42 µM (inactive)

row,Structure (SMILES),AC50
1,C[C@H]1O[C@H]1P(=O)(O)O,> 42 µM (inactive)
2,CCOC(=O)c1[nH]c2ccc(F)cc2c1NC(=O)CCN1CCOCC1,> 42 µM (inactive)
3,Oc1c(Br)cc(Br)cc1/C=N/n1c(-c2ccccc2)n[nH]c1=S,> 42 µM (inactive)
4,Cc1ccccc1Nc1c([N+](=O)[O-])ccc2c1=NC1(CCCCC1)N=2,> 42 µM (inactive)
5,COc1ccccc1OCCCn1cc(C#N)c2ccccc21,> 42 µM (inactive)
6,CSc1ccccc1-n1nnnc1SCC(=O)Nc1ccccc1C,> 42 µM (inactive)
7,COc1ccc(NC(=O)CCCc2ccccc2)cc1OC,9.43 µM
8,S=C(NCCc1ccccc1)Nc1ccccc1Cl,> 42 µM (inactive)
9,Cc1ccccc1-n1ncc2c([N+](=O)[O-])cc([N+](=O)[O-])cc21,> 42 µM (inactive)
10,Cc1nc(CSc2nnc3scc(-c4ccccc4)n23)cs1,> 42 µM (inactive)
11,NC(=O)C1CCCN(C(=S)Nc2cccc3ccccc23)C1 (stereo not given),> 42 µM (inactive)
12,COc1ccccc1CNC(=O)C(C)Sc1ccc(C)cc1 (stereo not given),> 42 µM (inactive)
13,O=C(/C=C/N1CCOCC1)c1coc2ccccc12,> 42 µM (inactive)
14,Cc1cnc(NC(=O)CSc2nc3ccccc3s2)s1,> 42 µM (inactive)
15,c1ccc(-c2nc(NCc3ccco3)c3ccccc3n2)nc1,> 42 µM (inactive)
16,COc1ccc(N2C(=O)CSC23CCCCC3)cc1,> 42 µM (inactive)
17,CC(=O)NC1CCCN(O)C(=O)/C=C(\C)CCOC(=O)C(NC(C)=O)CCCN(O)C(=O)/C=C(\C)CCOC(=O)C(NC(C)=O)CCCN(O)C(=O)/C=C(\C)CCOC1=O (stereo not given),> 42 µM (inactive)
18,CCCCNS(=O)(=O)c1ccc2c(c1)oc(=O)n2CC(=O)OCC,> 42 µM (inactive)
19,CCCOC(=O)c1ccc(O)c(OC)c1,> 42 µM (inactive)
20,COc1ccc(NC(=O)CN(C)C(=O)/C=C/c2cn(-c3ccccc3)nc2-c2ccc(F)cc2)cc1,> 42 µM (inactive)
21,COc1ccc(-n2c3c(cc(C(=O)NCC(=O)c4ccccc4)c2=O)C(=O)CC(C)(C)C3)cc1,> 42 µM (inactive)
22,CCc1ccc(NC(=O)N2CCC(c3ccccc3)C2)cc1 (stereo not given),> 42 µM (inactive)
23,COc1ccc(-c2nc(C#N)c(NC(C)c3ccccc3)o2)cc1OC (stereo not given),> 42 µM (inactive)
24,N/C(=N\OC(=O)CCC1CCCC1)c1ccc([N+](=O)[O-])cc1,> 42 µM (inactive)
25,O=Cc1cn(Cc2ccccc2F)c2ccccc12,> 42 µM (inactive)
